Experimental data taken from patent publication US7741283B2, “Compositions and methods for inhibiting cell proliferation” (St. Louis University, priority 2003, dated 2010).

Columns and labels:
acidic pH binding sites = acidic pH binding sites (Neogale vison, UniProt A0A8C7BSJ2); test: Specific binding of 125I-ligands to Mv1Lu cells at acidic pH; design: species or system mink; settings: Mv1Lu cells; EGTA/BAPTA- or GST-RAP-sensitive binding, 0° C.
R1B cells = settings: IGFBP-3 0.5 μg/ml; cited from earlier work
MEF cells = test: [methyl-3H] thymidine incorporation, MEF cells; assay type: cell-based, mouse; settings: IGFBP-3 up to 1 μg/ml
Description: FIG. 7 depicts the effect of TGF-β1 on DNA synthesis (A), cell growth (B) and PAI-1 expression (C) in MEF and PEA-13 cells. (A) Cells were treated with various concentrations of TGF-β1 as indicated. DNA synthesis was determined by measuring [methyl-^3H] thymidine incorporation into cellular DNA. The [methyl-^3H] thymidine incorporation in cells treated without TGF-β1 (100,861±3,720 and 103,262±6,722 cpm/well for MEF and PEA-13 cells, respectively) was taken as 0% inhibition. The negative values of inhibition indicate mitogenic activity. […] Each datapoint is the mean±S.D. of quadruplicate determinations. […] Data are representative of six similar experiments. (B) Cells were treated with various concentrations of TGF-β1 as indicated. The cell number was counted after a 4 day incubation. […] The negative values of the inhibition indicate the growth stimulatory activity. Each datapoint is the mean±S.D. of quadruplicate determinations. […] Data are representative of four similar experiments. (C) Cells were treated with various concentrations of TGF-β1 as indicated. The PAI-1 expression in these cells was determined by Northern blot analysis. The expression of G3PDH was used as control. The relative levels of the transcripts were quantified by a PhosphoImager. Data are representative of four similar experiments. […]

acidic pH binding sites, sequence (A0A8C7BSJ2 entry or part of it): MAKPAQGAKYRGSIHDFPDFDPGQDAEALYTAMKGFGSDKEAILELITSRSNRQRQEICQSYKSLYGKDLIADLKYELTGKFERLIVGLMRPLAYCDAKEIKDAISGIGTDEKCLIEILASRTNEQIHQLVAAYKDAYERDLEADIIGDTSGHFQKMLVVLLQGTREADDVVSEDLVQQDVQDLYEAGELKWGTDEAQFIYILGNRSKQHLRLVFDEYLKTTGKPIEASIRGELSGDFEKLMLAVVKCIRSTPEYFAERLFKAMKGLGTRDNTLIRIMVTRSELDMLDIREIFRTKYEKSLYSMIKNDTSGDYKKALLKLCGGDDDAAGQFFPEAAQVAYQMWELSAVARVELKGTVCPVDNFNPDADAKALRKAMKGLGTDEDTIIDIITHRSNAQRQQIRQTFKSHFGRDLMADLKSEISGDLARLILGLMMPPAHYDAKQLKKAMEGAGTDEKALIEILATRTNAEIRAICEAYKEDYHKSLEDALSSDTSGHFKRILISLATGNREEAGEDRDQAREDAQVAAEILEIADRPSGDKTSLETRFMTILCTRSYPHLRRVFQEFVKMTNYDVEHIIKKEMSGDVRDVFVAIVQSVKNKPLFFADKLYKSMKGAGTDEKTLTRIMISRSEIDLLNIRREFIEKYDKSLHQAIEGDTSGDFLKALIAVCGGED

IGFBP-3: human insulin-like growth factor binding protein-3 expressed in E. Coli
pH of optimal/maximal binding (acidic pH binding sites): 5 | Inhibition of DNA synthesis (R1B cells): 30-50% | Effect on DNA synthesis (MEF cells): did not appear to have a significant effect
